From PubChem BioAssay AID248 (DTP/NCI, 2004)
Values joined by “and” are separate entries in the source; they are usually repeats but may differ in a detail not shown here. Identical values can stand only once. Inconclusive results and toxic doses are left out.

System: L1210 leukemia ip in BDF1 mice, survival T/C
Assay: NCI In Vivo Anticancer Drug Screen. Data for tumor model L1210 Leukemia (intraperitoneal) in B6D2F1 (BDF1) mice
Conditions: endpoint: mean survival time, higher = longer survival
Summary of the method: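 Transplantable tumor model; survival measured in treated vs vehicle control mice. Value = treated/control.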

`CCN(CC)CCNc1ccc(C)c2sc3ccccc3c(=O)c12` was tested, and the T/C (dose: 6.25 mg/kg/injection, schedule: Q01DX009 (ip), vehicle: saline) was 117 % of control and 118 % of control, the T/C (dose: 8.08 mg/kg/injection, schedule: Q01DX Z (ip), vehicle: carboxymethylcellulose (CMC)) was 96 % of control and the T/C (dose: 10.0 mg/kg/injection, schedule: Q01DX Z (ip), vehicle: other) was 95 % of control. The T/C (dose: 12.0 mg/kg/injection, schedule: Q01DX006 (iv), vehicle: saline) was 98 % of control, the T/C (dose: 12.0 mg/kg/injection, schedule: Q01DX Z (im), vehicle: saline) was 98 % of control and the T/C (dose: 12.0 mg/kg/injection, schedule: Q01DX Z (ip), vehicle: saline) was 101 % of control. The T/C (dose: 12.0 mg/kg/injection, schedule: Q01DX Z (sc), vehicle: saline) was 98 % of control, the T/C (dose: 12.5 mg/kg/injection, schedule: Q01DX005 (ip), vehicle: Klucel (hydroxypropylcellulose) (HPC)) was 96 % of control and 97 % of control and the T/C (dose: 12.5 mg/kg/injection, schedule: Q01DX005 (ip), vehicle: water) was 101 % of control. For the same compound, the T/C (dose: 13.0 mg/kg/injection, schedule: Q01DX Z (oral), vehicle: carboxymethylcellulose (CMC)) was 122 % of control, the T/C (dose: 16.17 mg/kg/injection, schedule: Q01DX Z (ip), vehicle: carboxymethylcellulose (CMC)) was 104 % of control and the T/C (dose: 18.0 mg/kg/injection, schedule: Q01DX Z (ip), vehicle: carboxymethylcellulose (CMC)) was 98 % of control. For the same compound, the T/C (dose: 18.0 mg/kg/injection, schedule: Q01DX Z (ip), vehicle: methylcellulose (MC)) was 107 % of control, the T/C (dose: 20.0 mg/kg/injection, schedule: Q01DX Z (ip), vehicle: carboxymethylcellulose (CMC)) was 100 % of control and 109 % of control and the T/C (dose: 20.0 mg/kg/injection, schedule: Q01DX Z (oral), vehicle: carboxymethylcellulose (CMC)) was 112 % of control. For the same compound, the T/C (dose: 24.0 mg/kg/injection, schedule: Q01DX Z (im), vehicle: saline) was 103 % of control, the T/C (dose: 24.0 mg/kg/injection, schedule: Q01DX Z (ip), vehicle: saline) was 101 % of control and the T/C (dose: 24.0 mg/kg/injection, schedule: Q01DX Z (sc), vehicle: saline) was 98 % of control. The T/C (dose: 25.0 mg/kg/injection, schedule: Q01DX005 (ip), vehicle: Klucel (hydroxypropylcellulose) (HPC)) was 103 % of control and 105 % of control, the T/C (dose: 25.0 mg/kg/injection, schedule: Q01DX005 (ip), vehicle: water) was 112 % of control and the T/C (dose: 25.0 mg/kg/injection, schedule: Q01DX010 (ip), vehicle: saline) was 103 % of control and 113 % of control. For the same compound, the T/C (dose: 25.0 mg/kg/injection, schedule: Q01DX Z (ip), vehicle: carboxymethylcellulose (CMC)) was 109 % of control, the T/C (dose: 25.0 mg/kg/injection, schedule: Q04DX003 (ip), vehicle: Klucel (hydroxypropylcellulose) (HPC)) was 104 % of control and 110 % of control and the T/C (dose: 25.0 mg/kg/injection, schedule: Q04DX003 (ip), vehicle: saline) was 100 % of control. The T/C (dose: 25.0 mg/kg/injection, schedule: Q04DX003 (ip), vehicle: water) was 101 % of control, the T/C (dose: 25.88 mg/kg/injection, schedule: Q01DX Z (ip), vehicle: carboxymethylcellulose (CMC)) was 98 % of control and the T/C (dose: 27.0 mg/kg/injection, schedule: Q01DX Z (ip), vehicle: carboxymethylcellulose (CMC)) was 108 % of control. The T/C (dose: 27.0 mg/kg/injection, schedule: Q01DX Z (ip), vehicle: methylcellulose (MC)) was 105 % of control, the T/C (dose: 30.0 mg/kg/injection, schedule: Q01DX Z (ip), vehicle: other) was 103 % of control and the T/C (dose: 32.35 mg/kg/injection, schedule: Q01DX Z (ip), vehicle: carboxymethylcellulose (CMC)) was 102 % of control and 103 % of control. The T/C (dose: 39.0 mg/kg/injection, schedule: Q01DX Z (ip), vehicle: methylcellulose (MC)) was 164 % of control, the T/C (dose: 40.0 mg/kg/injection, schedule: Q01DX Z (ip), vehicle: carboxymethylcellulose (CMC)) was 114 % of control and 122 % of control and 123 % of control and the T/C (dose: 40.0 mg/kg/injection, schedule: Q01DX Z (ip), vehicle: methylcellulose (MC)) was 100 % of control. The T/C (dose: 43.13 mg/kg/injection, schedule: Q01DX Z (ip), vehicle: carboxymethylcellulose (CMC)) was 113 % of control, the T/C (dose: 48.0 mg/kg/injection, schedule: Q01DX Z (im), vehicle: saline) was 108 % of control and the T/C (dose: 48.0 mg/kg/injection, schedule: Q01DX Z (sc), vehicle: saline) was 101 % of control. For the same compound, the T/C (dose: 50.0 mg/kg/injection, schedule: Q01DX005 (ip), vehicle: Klucel (hydroxypropylcellulose) (HPC)) was 114 % of control, the T/C (dose: 50.0 mg/kg/injection, schedule: Q01DX005 (ip), vehicle: water) was 121 % of control and the T/C (dose: 50.0 mg/kg/injection, schedule: Q01DX Z (ip), vehicle: carboxymethylcellulose (CMC)) was 121 % of control. The T/C (dose: 50.0 mg/kg/injection, schedule: Q04DX003 (ip), vehicle: Klucel (hydroxypropylcellulose) (HPC)) was 102 % of control and 119 % of control, the T/C (dose: 50.0 mg/kg/injection, schedule: Q04DX003 (ip), vehicle: saline) was 102 % of control and the T/C (dose: 50.0 mg/kg/injection, schedule: Q04DX003 (ip), vehicle: water) was 106 % of control. For the same compound, the T/C (dose: 58.0 mg/kg/injection, schedule: Q01DX Z (ip), vehicle: methylcellulose (MC)) was 222 % of control, the T/C (dose: 60.0 mg/kg/injection, schedule: Q01DX Z (ip), vehicle: methylcellulose (MC)) was 104 % of control and the T/C (dose: 75.0 mg/kg/injection, schedule: Q01DX001 (ip), vehicle: Klucel (hydroxypropylcellulose) (HPC)) was 117 % of control. For the same compound, the T/C (dose: 75.0 mg/kg/injection, schedule: Q01DX001 (ip), vehicle: saline) was 96 % of control and 101 % of control, the T/C (dose: 75.0 mg/kg/injection, schedule: Q01DX001 (ip), vehicle: water) was 108 % of control and the T/C (dose: 90.0 mg/kg/injection, schedule: Q01DX Z (ip), vehicle: methylcellulose (MC)) was 100 % of control. For the same compound, the T/C (dose: 96.0 mg/kg/injection, schedule: Q01DX Z (im), vehicle: carboxymethylcellulose (CMC)) was 111 % of control, the T/C (dose: 96.0 mg/kg/injection, schedule: Q01DX Z (im), vehicle: saline) was 120 % of control and the T/C (dose: 96.0 mg/kg/injection, schedule: Q01DX Z (ip), vehicle: carboxymethylcellulose (CMC)) was 111 % of control. The T/C (dose: 96.0 mg/kg/injection, schedule: Q01DX Z (ip), vehicle: saline) was 165 % of control, the T/C (dose: 96.0 mg/kg/injection, schedule: Q01DX Z (sc), vehicle: saline) was 115 % of control and the T/C (dose: 100.0 mg/kg/injection, schedule: Q01DX001 (ip), vehicle: saline) was 104 % of control. For the same compound, the T/C (dose: 100.0 mg/kg/injection, schedule: Q01DX005 (ip), vehicle: water) was 157 % of control, the T/C (dose: 100.0 mg/kg/injection, schedule: Q01DX010 (ip), vehicle: saline) was 151 % of control and 166 % of control and the T/C (dose: 100.0 mg/kg/injection, schedule: Q04DX003 (ip), vehicle: saline) was 93 % of control and 116 % of control. The T/C (dose: 129.4 mg/kg/injection, schedule: Q01DX Z (ip), vehicle: carboxymethylcellulose (CMC)) was 87 % of control, the T/C (dose: 140.0 mg/kg/injection, schedule: Q01DX Z (sc), vehicle: carboxymethylcellulose (CMC)) was 122 % of control and the T/C (dose: 145.0 mg/kg/injection, schedule: Q01DX001 (ip), vehicle: water) was 116 % of control. The T/C (dose: 150.0 mg/kg/injection, schedule: Q01DX001 (ip), vehicle: Klucel (hydroxypropylcellulose) (HPC)) was 107 % of control, the T/C (dose: 150.0 mg/kg/injection, schedule: Q01DX001 (ip), vehicle: saline) was 94 % of control and 104 % of control and the T/C (dose: 150.0 mg/kg/injection, schedule: Q01DX001 (ip), vehicle: water) was 120 % of control. For the same compound, the T/C (dose: 200.0 mg/kg/injection, schedule: Q01DX001 (ip), vehicle: saline) was 110 % of control, the T/C (dose: 200.0 mg/kg/injection, schedule: Q01DX009 (ip), vehicle: saline) was 105 % of control and 110 % of control and the T/C (dose: 200.0 mg/kg/injection, schedule: Q01DX010 (ip), vehicle: saline) was 93 % of control and 103 % of control. For the same compound, the T/C (dose: 200.0 mg/kg/injection, schedule: Q01DX Z (oral), vehicle: saline) was 104 % of control, the T/C (dose: 200.0 mg/kg/injection, schedule: Q04DX003 (ip), vehicle: Klucel (hydroxypropylcellulose) (HPC)) was 176 % of control and 180 % of control and the T/C (dose: 200.0 mg/kg/injection, schedule: Q04DX003 (ip), vehicle: saline) was 117 % of control. For the same compound, the T/C (dose: 215.0 mg/kg/injection, schedule: Q01DX Z (im), vehicle: carboxymethylcellulose (CMC)) was 122 % of control, the T/C (dose: 215.0 mg/kg/injection, schedule: Q01DX Z (sc), vehicle: carboxymethylcellulose (CMC)) was 111 % of control and the T/C (dose: 217.0 mg/kg/injection, schedule: Q01DX001 (ip), vehicle: water) was 121 % of control. For the same compound, the T/C (dose: 300.0 mg/kg/injection, schedule: Q01DX001 (ip), vehicle: saline) was 105 % of control, the T/C (dose: 300.0 mg/kg/injection, schedule: Q01DX001 (ip), vehicle: water) was 121 % of control and the T/C (dose: 320.0 mg/kg/injection, schedule: Q01DX Z (im), vehicle: carboxymethylcellulose (CMC)) was 100 % of control and 114 % of control. The T/C (dose: 320.0 mg/kg/injection, schedule: Q01DX Z (sc), vehicle: carboxymethylcellulose (CMC)) was 102 % of control, the T/C (dose: 400.0 mg/kg/injection, schedule: Q01DX001 (ip), vehicle: saline) was 188 % of control and the T/C (dose: 480.0 mg/kg/injection, schedule: Q01DX Z (im), vehicle: carboxymethylcellulose (CMC)) was 90 % of control.
